Like-named read-outs stand apart in the source and are kept apart here.

The assay has as its target T1, B. cenocepacia CepI (Burkholderia cenocepacia, UniProt B4EMD2).
T1 sequence (B4EMD2 1-202): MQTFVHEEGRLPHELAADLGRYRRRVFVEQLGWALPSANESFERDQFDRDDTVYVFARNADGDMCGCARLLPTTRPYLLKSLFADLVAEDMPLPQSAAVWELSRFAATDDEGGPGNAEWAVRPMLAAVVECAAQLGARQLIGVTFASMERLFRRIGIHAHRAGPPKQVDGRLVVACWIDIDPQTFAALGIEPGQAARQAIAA
Description: CepI enzymatic assay (holo-ACP formation with DCPIP). Type of assay: biochemical, Burkholderia cenocepacia J2315. As to the method:
Determination of the CepI enzyme activity was performed spectrophotometrically by measuring holo-ACP formation with dichlorophenylindophenol (DCPIP; ε = 19100 M^−1 cm^−1) at 37 °C according to Christensen et al.[19]. Reaction mixtures typically contained 50 mM 4-(2-hydroxyethyl)-1-piperazineethanesulfonic acid pH 7.5 (HEPES), 0.005% Nonidet P-40, 0.13 mM DCPIP, 70 μM C8-ACP, 40 μM S-adenosyl methionine (SAM), 4 μM CepI and the reaction was started by addition of SAM after pre-incubation for 10 min.
CepI inhibition was initially screened for all compounds at 100 μM (dissolved in DMSO). […] To determine IC50, the enzyme activities were measured in presence of different concentrations of compounds and values determined with equation (1): […]
where A[I] is the enzyme activity at inhibitor concentration [I] and A[0] is the enzyme activity without inhibitor.
Ki determination was determined using the equation (2) for noncompetitive inhibition[49]: […]

[1] abbreviates: Supplementary Table S1, initial screen at 100 μM.
Setting [2] is: recombinant CepI, read-out: CepI IC50.

In the case of `O=C1CNC(=O)C(c2cc(OCc3ccccc3)ccc2OCc2ccccc2)N1` (stereo not drawn) [6a], the IC50 (commonly the concentration that gives 50% inhibition) worked out at 30 ± 6 µM.

For the compound `O=C1N[C@H](Cc2ccccc2)C(=O)NC1c1cc(OCc2ccccc2)ccc1OCc1ccccc1` (stereo partly drawn) [6b], under setting [1], the “CepI IC50” value is “not inhibitory”.

On to `CC(C)[C@H]1NC(=O)C(c2cc(OCc3ccccc3)ccc2OCc2ccccc2)NC1=O` (stereo partly drawn) [6c], for which the “CepI IC50” value under setting [1] is on record as “not inhibitory”.

With `O=C1CNC(=O)C(c2cc(O)ccc2O)N1` (stereo not drawn) [7a], the “CepI IC50” value under setting [1] is “not inhibitory”.

As to `O=C1N[C@H](Cc2ccccc2)C(=O)NC1c1cc(O)ccc1O` (stereo partly drawn) [7b], under setting [1], the “CepI IC50” value is on record as “not inhibitory”.

For `CC(C)[C@H]1NC(=O)C(c2cc(O)ccc2O)NC1=O` (stereo partly drawn) [7c], under setting [1], the “CepI IC50” value is “not inhibitory”.

Regarding `O=C1C=CC(=O)C(C2NC(=O)CNC2=O)=C1` (stereo not drawn) [8a], under “Supplementary Table S1, initial screen at 100 μM, read-out: CepI IC50”, the half-inhibitory concentration (IC50) worked out at 10 ± 1 µM.

As for `O=C1C=CC(=O)C(C2NC(=O)C(Cc3ccccc3)NC2=O)=C1` (stereo not drawn) [8b], half-maximal inhibition (IC50) was put at 5 ± 0.8 µM and the Ki (commonly the equilibrium dissociation constant of an inhibitor or competing ligand from its target) stood at 17 ± 0.6 µM. The mechanism of inhibition entry (towards both C8-ACP and SAM substrates) is “non-competitive inhibitor”.

Consider `CC(C)C1NC(=O)C(C2=CC(=O)C=CC2=O)NC1=O` (stereo not drawn) [8c], for which, under setting [2], the IC50 lay within 5 to 30 µM.

Consider `CN1CCN(C(c2ccccn2)c2c(-c3ccccc3)n(O)c3ccccc23)CC1` (stereo not drawn) [compound 1 from Christensen et al., reference compound], for which the IC50 under setting [2] amounted to 7.2 ± 0.2 µM.

For the origin of these results see PMC5007513, “Discovery of new diketopiperazines inhibiting Burkholderia cenocepacia quorum sensing in vitro and in vivo” (Scientific Reports, 2016).
